From PubChem BioAssay (NCI)
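Briefly, cells in 96-well plates were exposed to five compound concentrations for 48 h, and endpoints were estimated by linear interpolation. TGI: total growth inhibition.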

The compounds below were run on SR leukemia (assay: growth of human tumour cells (NCI), 48 h).

| SMILES | TGI |
| --- | --- |
| COc1cc2nc(-c3cccs3)nc(Cl)c2cc1OC | 34.8 µM |
| O=P1(Cc2ccccc2)N(Cc2ccccc2)[C@@H]2CCCC[C@H]2N1Cc1ccccc1 | 8.06 µM |
| CN1CCCOC(c2ccc(Cl)cc2)O1 (configuration not stated) | > 100 µM |
| O=C1/C(=C\c2cccc(Oc3ccccc3)c2)S(=O)(=O)C(c2ccccc2)N1c1cccc(Cl)c1 (configuration not stated) | > 100 µM |
| CCOC(=O)CCC1(CCC(=O)OCC)CCCCCCCCC(CCC(=O)OCC)(CCC(=O)OCC)C(=O)C1=O | > 100 µM |
| NCCCNCCCCN1CCOC1=O | > 100 µM |

Each compound was assayed on A498 renal (assay: growth of human tumour cells (NCI), 48 h).

| SMILES | TGI |
| --- | --- |
| S=C1NCCN1C(=S)Nc1ccccc1 | > 100 µM |
| COc1cc2c(cc1O)NC(=O)[C@@H]1CCCN1C2=O | > 100 µM |
| COc1ccc2nc(-c3ccccc3)c(=O)[nH]c2c1 | > 100 µM |
| COc1ccc(/C=N/N=C(\N)NO)c(OC)c1C | 87.6 µM |
| CCCC(=O)[O-].CCCC(=O)[O-].NCCN.NCCN.[Co+3].[O-][Cl+3]([O-])([O-])[O-] | > 100 µM |
| COc1cc(Nc2nc3cc(C(F)(F)F)ccc3nc2C(=O)O)cc(OC)c1OC | > 100 µM |
| CC1(C)O[C@H]2OC(CO)C(N=[N+]=[N-])[C@H]2O1 (some centres not stated) | > 100 µM |
| C=C1CC[C@H]2C(=O)OC(c3ccoc3)C[C@]2(C)C/C=C\C=C/1C(=O)OC (some centres not stated) | > 25 µM |
| CC(=O)c1c(N=[N+]=[N-])c2cccc3c2n(c1=O)CCC3 | 55.6 µM |
| Cn1nnnc1SC(F)(F)c1nc2ccccc2o1 | > 100 µM |
| COC(=O)N[C@H](C(=O)NC(OCc1ccccc1)C1COC(C)(C)O1)C(C)O[Si](C)(C)C(C)(C)C (some centres not stated) | > 100 µM |
| COc1ccc(C2c3cc4c(cc3OC(N3CCOCC3)C2C)OCO4)cc1 (configuration not stated) | 34.8 µM |
| C/C=C\C(CC(=O)NCC(=O)c1c[nH]c2ccccc12)CC(=O)OC (configuration not stated) | > 100 µM |
| CC(=O)c1ccc2c(c1)C(=O)c1sc(C(C)=O)cc1C2=O | 50 µM |
| O=Cc1ccc(-c2ccc(-c3ccc(CO)s3)o2)s1 | 0.353 µM |
| CCOP(=O)(OCC)/C(C#N)=C/c1ccc(-c2cc(C(F)(F)F)cc(C(F)(F)F)c2)o1 | 24.8 µM |
| Cc1n[n+](Cc2ccccc2)c2sc(N)nn12 | > 100 µM |
| CCOC(=O)c1c(OCC)[nH]c(=O)c(C(c2cccs2)c2c(O)c(C(=O)OCC)c(OCC)[nH]c2=O)c1O | 23.5 µM |
| CC(=O)Nc1c(C(=N)C#N)ncn1CCO | > 100 µM |
| CN1CCN(/C(N)=C(\C#N)C(=O)Nc2ccc(Cl)cc2)CC1 | > 100 µM |
| COc1cc2nc(-c3cccs3)nc(Cl)c2cc1OC | > 100 µM |
| CN1CCCOC(c2ccc(Cl)cc2)O1 (configuration not stated) | > 100 µM |
| O=C1/C(=C\c2cccc(Oc3ccccc3)c2)S(=O)(=O)C(c2ccccc2)N1c1cccc(Cl)c1 (configuration not stated) | > 100 µM |
| CCOC(=O)CCC1(CCC(=O)OCC)CCCCCCCCC(CCC(=O)OCC)(CCC(=O)OCC)C(=O)C1=O | > 100 µM |
| NCCCNCCCCN1CCOC1=O | > 100 µM |
| O=C(Cn1c2ccc(Br)cc2c2nc3ccccc3nc21)NNC(=S)NC1CCCCC1 | 35.1 µM |
| COCn1cnc2c(=O)nc(SC)n(-c3ccccc3)c21 | > 100 µM |

Each compound was assayed on OVCAR-4 ovarian (assay: growth of human tumour cells (NCI), 48 h).

| SMILES | TGI |
| --- | --- |
| COc1ccc(CNc2nc(NC3CCCCC3)nc(NC3CCCCC3)n2)cc1 | > 100 µM |
| Cc1ccc(NC(=O)C(=O)C2C(=O)NC(=O)NC2=O)cc1C | > 100 µM |
| S=C1NCCN1C(=S)Nc1ccccc1 | > 100 µM |
| CCOC(=O)c1ccc(-c2ccc(Cl)cc2)[nH]1 | > 10 µM |
| CC1CC(Nc2ccc(Br)cc2)N(C(=O)c2ccc(Br)cc2)O1 (configuration not stated) | > 10 µM |
| COc1cc2c(cc1O)NC(=O)[C@@H]1CCCN1C2=O | > 100 µM |
| O=c1[nH]c2nc3ccccc3c(=O)n2/c1=C/c1cccs1 | > 100 µM |
| COc1ccc(/C=N/N=C(\N)NO)c(OC)c1C | > 100 µM |
| CCCC(=O)[O-].CCCC(=O)[O-].NCCN.NCCN.[Co+3].[O-][Cl+3]([O-])([O-])[O-] | > 100 µM |
| COc1cc(Nc2nc3cc(C(F)(F)F)ccc3nc2C(=O)O)cc(OC)c1OC | > 100 µM |
| NCCCN(CCCN)CCc1cn(C(=O)c2ccccc2)cn1 | 15.3 µM |
| COc1cccc(-c2nc(-c3cnccn3)n(C/C=C/c3ccccc3)n2)c1 | > 10 µM |
| CC1(C)O[C@H]2OC(CO)C(N=[N+]=[N-])[C@H]2O1 (some centres not stated) | > 100 µM |
| C=C1CC[C@H]2C(=O)OC(c3ccoc3)C[C@]2(C)C/C=C\C=C/1C(=O)OC (some centres not stated) | > 25 µM |
| CC(NC(=O)Cc1ccccc1)NC(=O)C(C)C(=O)NCc1ccccc1 (configuration not stated) | > 100 µM |
| CC(=O)OCC1OC(n2c(C)c(N=Nc3ccc(Cl)cc3)c(C)c(C#N)c2=S)C(OC(C)=O)C(OC(C)=O)C1OC(C)=O (configuration not stated) | > 100 µM |
| CCCCC1Cc2cc(O)ccc2-c2nc3cc(O)ccc3n21 (configuration not stated) (tested in a mixture with another compound) | 30.8 µM |
| CC(NC(=O)c1c(O)[nH]c(=S)[nH]c1=O)c1ccc([N+](=O)[O-])cc1 (configuration not stated) | > 100 µM |

| SMILES | TGI |
| --- | --- |
| CC(=O)c1c(N=[N+]=[N-])c2cccc3c2n(c1=O)CCC3 | 52.3 µM |
| Cn1nnnc1SC(F)(F)c1nc2ccccc2o1 | > 100 µM |
| COC(=O)N[C@H](C(=O)NC(OCc1ccccc1)C1COC(C)(C)O1)C(C)O[Si](C)(C)C(C)(C)C (some centres not stated) | > 100 µM |
| COc1ccc(C2c3cc4c(cc3OC(N3CCOCC3)C2C)OCO4)cc1 (configuration not stated) | > 100 µM |
| CC(=O)O[C@]12CCCCCC1C1(O)C(O)CCCCC12 (some centres not stated) | > 100 µM |
| C/C=C\C(CC(=O)NCC(=O)c1c[nH]c2ccccc12)CC(=O)OC (configuration not stated) | > 100 µM |
| O=Cc1ccc(-c2ccc(-c3ccc(CO)s3)o2)s1 | > 100 µM |
| CN1CCc2c(sc3[nH]c(=S)[nH]c(=S)c23)C1 | > 100 µM |
| Cc1n[n+](Cc2ccccc2)c2sc(N)nn12 | > 100 µM |
| CCOC(=O)c1c(OCC)[nH]c(=O)c(C(c2cccs2)c2c(O)c(C(=O)OCC)c(OCC)[nH]c2=O)c1O | 76 µM |
| CC(=O)Nc1c(C(=N)C#N)ncn1CCO | > 100 µM |
| COc1cc2nc(-c3cccs3)nc(Cl)c2cc1OC | > 100 µM |
| O=P1(Cc2ccccc2)N(Cc2ccccc2)[C@@H]2CCCC[C@H]2N1Cc1ccccc1 | 15.2 µM |
| CN1CCCOC(c2ccc(Cl)cc2)O1 (configuration not stated) | > 100 µM |
| O=C1/C(=C\c2cccc(Oc3ccccc3)c2)S(=O)(=O)C(c2ccccc2)N1c1cccc(Cl)c1 (configuration not stated) | > 100 µM |
| CCOC(=O)CCC1(CCC(=O)OCC)CCCCCCCCC(CCC(=O)OCC)(CCC(=O)OCC)C(=O)C1=O | > 100 µM |
| O=C(Cn1c2ccc(Br)cc2c2nc3ccccc3nc21)NNC(=S)NC1CCCCC1 | 41.2 µM |
| COCn1cnc2c(=O)nc(SC)n(-c3ccccc3)c21 | > 100 µM |

Each compound was assayed on RPMI-8226 leukemia (assay: growth of human tumour cells (NCI), 48 h).

| SMILES | TGI |
| --- | --- |
| Cc1ccc(NC(=O)C(=O)C2C(=O)NC(=O)NC2=O)cc1C | > 100 µM |
| CC1CC(Nc2ccc(Br)cc2)N(C(=O)c2ccc(Br)cc2)O1 (configuration not stated) | > 10 µM |
| COc1cc2c(cc1O)NC(=O)[C@@H]1CCCN1C2=O | > 100 µM |
| COc1ccc2nc(-c3ccccc3)c(=O)[nH]c2c1 | > 100 µM |
| O=c1[nH]c2nc3ccccc3c(=O)n2/c1=C/c1cccs1 | > 100 µM |
| COc1ccc(/C=N/N=C(\N)NO)c(OC)c1C | > 100 µM |
| CCCC(=O)[O-].CCCC(=O)[O-].NCCN.NCCN.[Co+3].[O-][Cl+3]([O-])([O-])[O-] | > 100 µM |
| NCCCN(CCCN)CCc1cn(C(=O)c2ccccc2)cn1 | 10 µM |
| CC1(C)O[C@H]2OC(CO)C(N=[N+]=[N-])[C@H]2O1 (some centres not stated) | > 100 µM |
| CC(NC(=O)Cc1ccccc1)NC(=O)C(C)C(=O)NCc1ccccc1 (configuration not stated) | > 100 µM |
| CC(=O)OCC1OC(n2c(C)c(N=Nc3ccc(Cl)cc3)c(C)c(C#N)c2=S)C(OC(C)=O)C(OC(C)=O)C1OC(C)=O (configuration not stated) | > 100 µM |
| CCCCC1Cc2cc(O)ccc2-c2nc3cc(O)ccc3n21 (configuration not stated) (tested in a mixture with another compound) | 31.5 µM |
| CC(NC(=O)c1c(O)[nH]c(=S)[nH]c1=O)c1ccc([N+](=O)[O-])cc1 (configuration not stated) | > 100 µM |
| CC(=O)c1c(N=[N+]=[N-])c2cccc3c2n(c1=O)CCC3 | 66.9 µM |
| NC1(CCNC(=O)c2ccccc2)CCN(C(=O)c2ccccc2)CC1 | > 100 µM |
| Cn1nnnc1SC(F)(F)c1nc2ccccc2o1 | > 100 µM |

| SMILES | TGI |
| --- | --- |
| COC(=O)N[C@H](C(=O)NC(OCc1ccccc1)C1COC(C)(C)O1)C(C)O[Si](C)(C)C(C)(C)C (some centres not stated) | > 100 µM |
| COc1ccc(C2c3cc4c(cc3OC(N3CCOCC3)C2C)OCO4)cc1 (configuration not stated) | 61.7 µM |
| CC(=O)O[C@]12CCCCCC1C1(O)C(O)CCCCC12 (some centres not stated) | > 100 µM |
| C/C=C\C(CC(=O)NCC(=O)c1c[nH]c2ccccc12)CC(=O)OC (configuration not stated) | > 100 µM |
| CC(=O)c1ccc2c(c1)C(=O)c1sc(C(C)=O)cc1C2=O | 23.8 µM |
| CCOP(=O)(OCC)/C(C#N)=C/c1ccc(-c2cc(C(F)(F)F)cc(C(F)(F)F)c2)o1 | 23.5 µM |
| CN1CCc2c(sc3[nH]c(=S)[nH]c(=S)c23)C1 | > 100 µM |
| Cc1n[n+](Cc2ccccc2)c2sc(N)nn12 | > 100 µM |
| CCOC(=O)c1c(OCC)[nH]c(=O)c(C(c2cccs2)c2c(O)c(C(=O)OCC)c(OCC)[nH]c2=O)c1O | > 100 µM |
| CC(=O)Nc1c(C(=N)C#N)ncn1CCO | > 100 µM |
| CN1CCN(/C(N)=C(\C#N)C(=O)Nc2ccc(Cl)cc2)CC1 | > 100 µM |
| O=C1/C(=C\c2cccc(Oc3ccccc3)c2)S(=O)(=O)C(c2ccccc2)N1c1cccc(Cl)c1 (configuration not stated) | 78.8 µM |
| NCCCNCCCCN1CCOC1=O | > 100 µM |
| O=C(Cn1c2ccc(Br)cc2c2nc3ccccc3nc21)NNC(=S)NC1CCCCC1 | 26.8 µM |
| COCn1cnc2c(=O)nc(SC)n(-c3ccccc3)c21 | > 100 µM |

What follows are compounds tested on UACC-257 melanoma (assay: growth of human tumour cells (NCI), 48 h).

| SMILES | TGI |
| --- | --- |
| COc1ccc(CNc2nc(NC3CCCCC3)nc(NC3CCCCC3)n2)cc1 | > 100 µM |
| Cc1ccc(NC(=O)C(=O)C2C(=O)NC(=O)NC2=O)cc1C | > 100 µM |
| S=C1NCCN1C(=S)Nc1ccccc1 | > 100 µM |
| CCOC(=O)c1ccc(-c2ccc(Cl)cc2)[nH]1 | > 10 µM |
| CC1CC(Nc2ccc(Br)cc2)N(C(=O)c2ccc(Br)cc2)O1 (configuration not stated) | > 10 µM |
| COc1cc2c(cc1O)NC(=O)[C@@H]1CCCN1C2=O | > 100 µM |
| COc1ccc2nc(-c3ccccc3)c(=O)[nH]c2c1 | > 100 µM |
